The structures appear in SMILES notation.

Results on 29 compounds are retold here after patent publication US10077243B2, “Compounds for treating disorders mediated by metabotropic glutamate receptor 5, and methods of use thereof” (Sunovion Pharmaceuticals Inc., priority 2009, dated 2018).

T1 sequence (P41594 21-1212): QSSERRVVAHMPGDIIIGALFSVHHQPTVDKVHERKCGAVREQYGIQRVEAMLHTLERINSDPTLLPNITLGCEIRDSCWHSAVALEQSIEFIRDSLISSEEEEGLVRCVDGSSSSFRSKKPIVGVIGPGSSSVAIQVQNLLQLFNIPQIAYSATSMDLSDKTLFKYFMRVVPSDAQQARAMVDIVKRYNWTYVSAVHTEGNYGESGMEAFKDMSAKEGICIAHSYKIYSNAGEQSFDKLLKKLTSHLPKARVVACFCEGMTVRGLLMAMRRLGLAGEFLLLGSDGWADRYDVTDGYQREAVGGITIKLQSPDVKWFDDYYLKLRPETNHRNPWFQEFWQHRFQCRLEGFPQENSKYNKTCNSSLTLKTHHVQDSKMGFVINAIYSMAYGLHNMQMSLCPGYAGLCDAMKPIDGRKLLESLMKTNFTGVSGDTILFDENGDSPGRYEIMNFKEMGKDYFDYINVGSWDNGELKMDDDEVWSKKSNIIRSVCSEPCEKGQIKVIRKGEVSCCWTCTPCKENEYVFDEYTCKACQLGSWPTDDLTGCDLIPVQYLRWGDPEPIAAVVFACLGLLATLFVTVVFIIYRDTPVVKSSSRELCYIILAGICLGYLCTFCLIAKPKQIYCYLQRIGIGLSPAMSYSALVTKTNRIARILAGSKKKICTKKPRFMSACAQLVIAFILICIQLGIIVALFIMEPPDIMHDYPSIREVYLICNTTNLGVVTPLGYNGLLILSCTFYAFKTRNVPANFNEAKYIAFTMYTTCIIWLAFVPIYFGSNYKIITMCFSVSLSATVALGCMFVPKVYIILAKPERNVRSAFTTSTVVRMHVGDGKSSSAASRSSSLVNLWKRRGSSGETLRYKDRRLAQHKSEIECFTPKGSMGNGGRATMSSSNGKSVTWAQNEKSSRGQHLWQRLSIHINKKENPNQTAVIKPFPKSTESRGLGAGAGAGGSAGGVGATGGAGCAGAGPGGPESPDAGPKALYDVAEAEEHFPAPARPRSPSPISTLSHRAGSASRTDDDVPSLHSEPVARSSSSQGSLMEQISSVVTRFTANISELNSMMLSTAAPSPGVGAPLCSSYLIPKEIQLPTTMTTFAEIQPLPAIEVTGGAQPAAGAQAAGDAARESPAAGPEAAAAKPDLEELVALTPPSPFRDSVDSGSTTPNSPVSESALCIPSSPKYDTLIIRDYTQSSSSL

This test concerns the target T1, human mGluR5 (Homo sapiens, UniProt P41594).
T1 construct: expressed in transfected cells; host or cells: HEK293 cells stably expressing rat GLAST (EAAT1), stably transfected with pcDNAzeo3.1 carrying synthetic human mGluR5 DNA; zeocin-selected single clones
The experiment in a line: In vitro cell-based FLIPR calcium assay for positive modulation of the activation of mGluR5 by glutamate (PAM EC50). As to conditions: HEK293/GLAST cells expressing recombinant human mGluR5; FLIPR calcium signal; glutamate added at its EC20; read-out: mGluR5 PAM EC50. An excerpt:
The DNA sequences encoding the structural regions for rat mGluR5 [Abe T, Sugihara H, Nawa H, Shigemoto R, Mizuno N, Nakanishi S (1992) “Molecular characterization of a novel metabotropic glutamate receptor mGluR5 coupled to inositol phosphate/Ca^2+ signal transduction” Journal of Biological Chemistry vol. 267, no. 19, pp. 13361-8] and human mGluR5 [Daggett L P, Sacaan A I, Akong M, Rao S P, Hess S D, Liaw C, Urrutia A, Jachec C, Ellis S B, Dreessen J, Knöpfel T, Landwehrmeyer G B, Testa C M, Young A B, Varney M, Johnson E C, Veliçelebi (1995) “Molecular and functional characterization of recombinant human metabotropic glutamate receptor subtype 5” Neuropharmacology vol. 34, no. […] 53, no. 3, pp. 355-369] was obtained from Dr. Michael Robinson of the Children's Hospital of Philadelphia under a Material Transfer Agreement. The pcDNAzeo3.1 vector DNA, carrying either rat mGluR5 or human mGluR5, was used to transfect a sample of the HEK293/GLAST cells, and single clones that express mGluR5 were isolated from the transfected cells using zeocin selection. Expression of mGluR5 was assessed by measurement of the transient fluorescence signal elicited from HEK293/GLAST/mGluR5 cells by glutamate following the loading of the cells with a calcium-sensitive dye using a FLIPR Tetra (Fluorometric Imaging Plate Reader) (Molecular Devices, Sunnyvale, Calif.) [O'Brien J A, Lemaire W, Chen T B, Chang R S, Jacobson M A, Ha S N, Lindsley C W, Schaffhauser H J, Sur C, Pettibone D J, Conn P J, Williams D L Jr. […] 64, no. 3, pp. 731-740; Assay Guidance Manual Version 5.0, 2008, Eli Lilly and Company and NIH Chemical Genomics Center; available online HEK293/GLAST/mGluR5 cells were grown in Dulbecco's Modified Eagle Medium (DMEM) supplemented with 10% dialyzed fetal bovine serum, 20 millimolar (mM) N-2-hydroxyethylpiperazine-N′-2-ethanesulfonic acid (HEPES), penicillin, streptomycin, 1% GlutaMax™ (Invitrogen) and 50 μg/ml zeocin. Cells were grown in the media to 70-80% confluency at 37° C. under 5% CO2, 95% humidity in poly-D-lysine coated coated flasks. Cells for assays were plated into 96-well sterile standard microtiter plates (pre-coated with poly-D-lysine) at a density of 50,000 cells per well in 0.2 milliliters of media. Plated cells were allowed to settle and adhere for 30 minutes at ambient conditions, and then were incubated overnight at 37° C. under 5% CO2, 95% humidity. Several such 96-well plates were typically prepared. On the day of the assays, the components of the FLIPR calcium 4 assay kit (Molecular Devices) were dissolved according to the instructions of the dye kit's manufacturer in assay buffer (Hank's balanced salt solution (HBSS) (Gibco) supplemented with 20 mM HEPES). After removal of the growth media from the first plate, cells were loaded with calcium dye by addition of calcium dye solution (50 microliters per well) and incubation at 25° C. for 45 to 60 minutes. The first plate was placed into the FLIPR Tetra, and a dilution series of glutamate solutions in assay buffer were added to wells on the plate, followed by acquisition of fluorescence data for several minutes. The fluorescence data (maximal signal as a 4-parameter sigmoidal function of log [glutamate]) were processed by non-linear regression methods using the software package GraphPad Prism 5.01 (GraphPad Software Inc.), to yield a glutamate concentration-response curve (CRC). […] These values were, respectively, the concentrations of glutamate that elicit 20%, 50%, and 80% of the maximal FLIPR signal (observed at saturating [glutamate]). The method for measuring the concentration response of a potentiator, or positive allosteric modulator (PAM), is described here as an example. For that purpose, subsequent assays were typically performed using assay buffer containing a glutamate concentration equal to that day's EC20. […] Addition to certain wells of the same buffer containing 0.3% DMSO, but without any test compound, provided a negative control.
Turning to `O=c1c2ccc(C#Cc3ccccn3)cc2nc2n1CC(CO)C2` (centres unmarked) [Example 3.18, 2-(hydroxymethyl)-6-(pyridin-2-ylethynyl)-2,3-dihydropyrrolo[2,1-b]quinazolin-9(1H)-one], the concentration giving a half-maximal response (EC50) – broadly, the midpoint of the concentration-response curve – lay within 100 to 300 nM.

Turning to `COCC1Cc2nc3cc(C#Cc4ccccn4)ccc3c(=O)n2C1` (centres unmarked) [Example 3.19, 2-(methoxymethyl)-6-(pyridin-2-ylethynyl)-2,3-dihydropyrrolo[2,1-b]quinazolin-9(1H)-one], the EC50 was 30 to 100 nM. In the case of `CC1(C)Cc2nc3cc(C#Cc4ccccn4)ccc3c(=O)n2C1` [Example 3.20, 2,2-dimethyl-6-(pyridin-2-ylethynyl)-2,3-dihydropyrrolo[2,1-b]quinazolin-9(1H)-one], the EC50 is under 10 nM.

On to `O=c1c2ccc(C#Cc3ccccn3)cc2nc2n1CC1(CCOCC1)C2` [Example 3.24, 6′-(pyridin-2-ylethynyl)-2,3,5,6-tetrahydro-1′H-spiro[pyran-4,2′-pyrrolo[2,1-b]quinazolin]-9′(3′H)-one], for which the EC50 was 10 to 30 nM.

Regarding `O=c1c2ccc(C#Cc3ccccn3)cc2nc2n1C1CCC2C1` (centres unmarked) [Example 3.25, 3-(pyridin-2-ylethynyl)-8,9-dihydro-6H-6,9-methanopyrido[2,1-b]quinazolin-11(7H)-one], the EC50 lay within 10 to 30 nM.

`O=c1c2ccc(C#Cc3cccc(F)c3)cc2nc2n1CCOC2` [Example 4.1, 9-((3-fluorophenyl)ethynyl)-3,4-dihydro-[1,4]oxazino[3,4-b]quinzolin-6(1H)-one]: the EC50 was under 10 nM. Next, `O=c1c2ccc(C#Cc3ccc(F)cc3)cc2nc2n1CCOC2` [Example 4.2, 9-((4-fluorophenyl)ethynyl)-3,4-dihydro-[1,4]oxazino[3,4-b]quinazolin-6(1H)-one]: 30 to 100 nM; `O=c1c2ccc(C#Cc3cccc(F)c3)cc2nc2n1CCCC2` [Example 4.4]: under 10 nM. Next, `O=c1c2ccc(C#Cc3ccc(F)cc3)cc2nc2n1CCCC2` [Example 4.5, 3-((4-fluorophenyl)ethynyl)-8,9-dihydro-6H-pyrido[2,1-b]quinazolin-11(7H)-one]: under 10 nM; `C=CCC1CCCn2c1nc1cc(C#Cc3cccc(F)c3)ccc1c2=O` (centres unmarked) [Example 4.7, 6-allyl-3-((3-fluorophenyl)ethynyl)-8,9-dihydro-6H-pyrido[2,1-b]quinazolin-11(7H)-one]: 10 to 30 nM.

For the compound `CCC1CCCn2c1nc1cc(C#Cc3cccc(F)c3)ccc1c2=O` (centres unmarked) [Example 4.8, 6-ethyl-3-((3-fluorophenyl)ethynyl)-8,9-dihydro-6H-pyrido[2,1-b]quinazolin-11(7H)-one], the EC50 was 100 to 300 nM. Regarding `O=c1c2ccc(C#Cc3cccc(F)c3)cc2nc2n1CCCC2Cc1ccccc1` (centres unmarked) [Example 4.9, 6-benzyl-3-((3-fluorophenyl)ethynyl)-8,9-dihydro-6H-pyrido[2,1-b]quinazolin-11(7H)-one], the EC50 was in the range of 100 to 300 nM. The value for `CC1CCn2c(nc3cc(C#Cc4cccc(F)c4)ccc3c2=O)C1` (centres unmarked) [Example 4.10, 3-((3-fluorophenyl)ethynyl)-7-methyl-8,9-dihydro-6H-pyrido[2,1-b]quinazolin-11(7H)-one] was under 10 nM; that for `CC1CCn2c(nc3cc(C#Cc4ccccn4)ccc3c2=O)C1` (centres unmarked) [Example 4.11, 7-methyl-3-(pyridin-2-ylethynyl)-8,9-dihydro-6H-pyrido[2,1-b]quinazolin-11(7H)-one] was 30 to 100 nM; that for `CC1CCc2nc3cc(C#Cc4ccccn4)ccc3c(=O)n2C1` (centres unmarked) [Example 4.12, 8-methyl-3-(pyridin-2-ylethynyl)-8,9-dihydro-6H-pyrido[2,1-b]quinazolin-11(7H)-one] was 10 to 30 nM.

As to `CC1(C)CCn2c(nc3cc(C#Cc4cccc(F)c4)ccc3c2=O)C1` [Example 4.13, 3-((3-fluorophenyl)ethynyl)-7,7-dimethyl-8,9-dihydro-6H-pyrido[2,1-b]quinazolin-11(7H)-one], the EC50 is under 10 nM.

Regarding `CC1(C)CCc2nc3cc(C#Cc4cccc(F)c4)ccc3c(=O)n2C1` [Example 4.14, 3-((3-fluorophenyl)ethynyl)-8,8-dimethyl-8,9-dihydro-6H-pyrido[2,1-b]quinazolin-11(7H)-one], the EC50 is under 10 nM.

As for `CC1(C)CCn2c(nc3cc(C#Cc4ccccn4)ccc3c2=O)C1` [Example 4.15, 7,7-dimethyl-3-(pyridin-2-ylethynyl)-8,9-dihydro-6H-pyrido[2,1-b]quinazolin-11(7H)-one], the EC50 was under 10 nM. On to `CC1(C)CCc2nc3cc(C#Cc4ccccn4)ccc3c(=O)n2C1` [Example 4.16, 8,8-dimethyl-3-(pyridin-2-ylethynyl)-8,9-dihydro-6H-pyrido[2,1-b]quinazolin-11(7H)-one], for which the EC50 is under 10 nM. Regarding `CC1CCCc2nc3cc(C#Cc4cccc(F)c4)ccc3c(=O)n21` (centres unmarked) [Example 4.17, 3-((3-fluorophenyl)ethynyl)-9-methyl-8,9-dihydro-6H-pyrido[2,1-b]quinazolin-11(7H)-one], the EC50 lay in the range of 10 to 30 nM. Next, `CC1CCCc2nc3cc(C#Cc4ccccn4)ccc3c(=O)n21` (centres unmarked) [Example 4.18, 9-methyl-3-(pyridin-2-ylethynyl)-8,9-dihydro-6H-pyrido[2,1-b]quinazolin-11(7H)-one]: 10 to 30 nM. With `CCC1CCCc2nc3cc(C#Cc4ccccn4)ccc3c(=O)n21` (centres unmarked) [Example 4.19, 9-ethyl-3-(pyridin-2-ylethynyl)-8,9-dihydro-6H-pyrido[2,1-b]quinazolin-11(7H)-one], the EC50 fell in the range of 10 to 30 nM. In the case of `O=c1c2ccc(C#Cc3cccc(F)c3)cc2nc2n1CCC=C2` [Example 4.20, 3-((3-fluorophenyl)ethynyl)-8H-pyrido[2,1-b]quinazolin-11(9H)-one], the EC50 lay in the range of 10 to 30 nM. Next, `O=c1c2ccc(C#Cc3cccc(F)c3)cc2nc2n1CC1(CC2)OCCO1` [Example 4.21, 3′((3-fluorophenyl)ethynyl)-6′,7′-dihydrospiro[[1,3]dioxolane-2,8′-pyrido[2,1-b]quinazolin]-11′(9′H)-one]: 10 to 30 nM; `O=C1CCc2nc3cc(C#Cc4cccc(F)c4)ccc3c(=O)n2C1` [Example 4.22, 3-((3-fluorophenyl)ethynyl)-6H-pyrido[2,1-b]quinazoline-8,11(7H,9H)-dione]: 30 to 100 nM. The value for `O=c1c2ccc(C#Cc3cccc(F)c3)cc2nc2n1CC(O)CC2` (centres unmarked) [Example 4.23, 3-((3-fluorophenyl)ethynyl)-8-hydroxy-8,9-dihydro-6H-pyrido[2,1-b]quinazolin-11(7H)-one] was 30 to 100 nM; that for `O=c1c2ccc(C#Cc3ccccn3)cc2nc2n1CC(O)CC2` (centres unmarked) [Example 4.24, 8-hydroxy-3-(pyridin-2-ylethynyl)-8,9-dihydro-6H-pyrido[2,1-b]quinazolin-11(7H)-one] was 300 to 1000 nM. Next, `COC1CCc2nc3cc(C#Cc4cccc(F)c4)ccc3c(=O)n2C1` (centres unmarked) [Example 4.25, 3-((3-fluorophenyl)ethynyl)-8-methoxy-8,9-dihydro-6H-pyrido[2,1-b]quinazolin-11(7H)-one]: under 10 nM; `COC1CCc2nc3cc(C#Cc4ccccn4)ccc3c(=O)n2C1` (centres unmarked) [Example 4.26, 8-methoxy-3-(pyridin-2-ylethynyl)-8,9-dihydro-6H-pyrido[2,1-b]quinazolin-11(7H)-one]: 30 to 100 nM.
